Series [1] relates to Mia Paca-2. The series is described as follows: WST-1 proliferation/survival assay, Mia Paca-2. Type of series: cell-based, human. Particulars: for response of Mia Paca-2 cells to gemcitabine after pre-incubation with TKI: 10 μM imatinib or dasatinib, compared to masitinib; for IC50: Homo sapiens. The protocol:
(§1) Sensitivity of pancreatic tumour cell lines to masitinib or gemcitabine as single agents, or in combination, was assessed using WST-1 proliferation assays. Four cell lines were tested for their sensitivity to masitinib (A) or gemcitabine (B). […] (D) Sensitivity of resistant Mia Paca-2 cells to various tyrosine kinase inhibitors alone (top) or in combination with gemcitabine (bottom) was analyzed in WST-1 proliferation assays.
(§2) Pancreatic cancer cells lines (Mia Paca-2, Panc-1, BxPC-3 and Capan-2) were obtained from Dr. Juan Iovanna (Inserm, France). Cells were maintained in RPMI (BxPC-3, Capan-2) or DMEM (Mia Paca-2, Panc-1) medium containing glutamax-1 (Lonza), supplemented with 100 U/ml penicillin/100 μg/ml streptomycin, and 10% foetal calf serum (FCS) (AbCys, Lot S02823S1800). Expression of tyrosine kinases was determined by RT-PCR using Hot Star Taq (Qiagen GmbH, Hilden, Germany) in a 2720 Thermal Cycler (Applied Biosystems).
(§3) Cytotoxicity of masitinib and gemcitabine was assessed using a WST-1 proliferation/survival assay (Roche diagnostic) in growth medium containing 1% FCS. Treatment was started with the addition of the respective drug. […] After 72 hours WST-1 reagent was added and incubated with the cells for 4 hours before absorbance measurement at 450 nm in an EL800 Universal Microplate Reader (Bio-Tek Instruments Inc.). Media alone was used as a blank and proliferation in the absence of compounds served as positive control. Results are representative of three/four experiments. The masitinib sensitisation index is the ratio of the IC50 of gemcitabine against the IC50 of the drug combination.
Comparison of masitinib to other TKIs for their potential to sensitize gemcitabine-resistant pancreatic cancer cells: Similar TKI plus gemcitabine combination experiments to those described above were performed with gemcitabine-resistant Mia Paca-2 cells to compare masitinib with imatinib (Gleevec™, STI-571; Novartis, Basel, Switzerland), a TKI targeting ABL, PDGFR, and c-Kit); and dasatinib (Sprycel, Bristol-Myers Squibb), a TKI targeting SRC, ABL, PDGFR, and c-Kit.
In general terms: Formazan colour is commonly taken as a measure of viable cells.

The target of series [2] is FAK (Homo sapiens, UniProt Q05397). The series can be described thus: FAK activity, preliminary in vitro data. In kind it is biochemical. From the text:
Altogether, this could provide a mechanism of action for masitinib on pancreatic cancer through the reduction of tumour progression or the inhibition of mast cell migration and activation, or both.

The subject of series [3] is Mia Paca-2 cells. The series is described as follows: In vitro tyrosine phosphorylation assay (western blot, anti-pTyr). Conditions: 6 hours, at 1 μM and beyond. Type of series: cell-based, human. The protocol:
(A) Messenger RNA expression of various receptor and cytoplasmic tyrosine kinases was analyzed by RT-PCR. Universal human reference total RNA was used as positive control for primers and the ubiquitous β-glucoronidase (GUS) served as an internal control for all RT-PCR reactions. (B) Tyrosine phosphorylation of proteins in response to masitinib. Mia Paca-2 cells (5×10^6) were treated for 6 hours at 37° C. with various concentrations of masitinib. Total cell lysates were prepared and tyrosine phosphorylation was analyzed by western blot with antibodies against phosphotyrosine (anti-pTyr). […] MW=molecular weight. […] Proteins (20 μg) were resolved by SDS-PAGE 10%, followed by western blotting and immunostaining. The following primary antibodies were used: rabbit anti-phospho-GRB2 antibody (sc-255 1:1000, Santa Cruz, Calif.), and anti-phosphotyrosine antibody (4G10 1:1000, Cell Signalling Technology, Ozyme, France). […] Immunoreactive bands were detected using enhanced chemiluminescent reagents (Pierce, USA). To estimate the range of masitinib concentration necessary to sensitize pancreatic tumor cell lines to chemotherapy, we assessed the ability of masitinib to block protein tyrosine phosphorylation by western blot analysis in cell lysates. […]
Background: A western blot detects proteins with antibodies after separation by electrophoresis.

Series [4] concerns BxPC-3. The series can be described thus: WST-1 proliferation/survival assay, BxPC-3. In kind it is cell-based, human. Particulars: BxPC-3, single agent, 1% FCS. The protocol:
as §1, §2
Cytotoxicity of masitinib and gemcitabine was assessed using a WST-1 proliferation/survival assay (Roche diagnostic) in growth medium containing 1% FCS. Treatment was started with the addition of the respective drug. […] After 72 hours WST-1 reagent was added and incubated with the cells for 4 hours before absorbance measurement at 450 nm in an EL800 Universal Microplate Reader (Bio-Tek Instruments Inc.). […]

In series [5] the test system is Capan-2. The series can be described thus: WST-1 proliferation/survival assay, Capan-2. In kind it is cell-based, human. Particulars: Capan-2, single agent, 1% FCS. The method, then:
as §1, §2, §3

For series [6], the system named is Panc-1. The series is described as follows: WST-1 proliferation/survival assay, Panc-1. Type of series: cell-based. Particulars: Homo sapiens. The method, then: as §1, §2, §3
The subject of series [7] is Mia Paca-2 pancreatic tumours. The series can be described thus: Nog-SCID mouse model of human pancreatic cancer. In kind it is in vivo, Nog-SCID mice. Conditions: for Tumour volume, Median: following 28 days of treatment (day 56). The protocol:
Mia Paca-2 tumour cells (10^7) were injected into the flank of Nog-SCID mice. Treatment was initiated 28 days after tumour cell injection. The different groups were treated with either: twice weekly injections of gemcitabine (i.p. 50 mg/kg), daily oral masitinib (100 mg/kg), water (control), or combined daily oral masitinib (100 mg/kg) and twice weekly injections of gemcitabine. Mice were treated for 56 days.
Male Nog-Scid mice (7 weeks old) were obtained from internal breeding and were housed under specific pathogen-free conditions at 20±1° C. in a 12-hour light/12-hour dark cycle and ad libitum access to food and filtered water. Mia Paca-2 cells were cultured as described above. At day 0 (D0), mice were injected with 107 Mia Paca-2 cells in 200 μl PBS into the right flank. Tumours were allowed to grow for 1.5 to 4 weeks until the desired tumour size was reached (˜200 mm3). At day 28, animals were allocated into four treatment groups (n=7 to 8 per group), ensuring that each group's mean body weight and tumour volume were well matched, and treatment was initiated for a duration of 4 to 5 weeks. Treatments consisted of either: a) daily sterile water for the control group, b) an intraperitoneal (i.p.) injection of 50 mg/kg gemcitabine twice a week, c) daily gavage with 100 mg/kg masitinib, or d) combined i.p injection of 50 mg/kg gemcitabine twice a week and daily gavage with 100 mg/kg masitinib. Tumour size was measured with callipers and tumour volume was estimated using the formula: volume=(length×width2)/2. The tumour growth inhibition ratio was calculated as (100)×(median tumour volume of treated group)/(median tumour volume of control group).
Relative changes in tumour volumes were compared between treatment groups using a variance analysis (ANOVA). Normality of relative changes in tumour volumes between day 28 and day 56 was first tested using the Shapiro-Wilk test of normality. […]
The tumour size was monitored every 7 days until day 56, after which time the animals were sacrificed.

Series [8] relates to Mia Paca-2 cells. The series can be described thus: Gene expression profiling (Affymetrix U133 Plus 2.0 microarrays) and pathway analysis. In kind it is cell-based, human. Conditions: for down-regulated genes / up-regulated genes: fold-change threshold of 2; for deregulated genes: fold-change threshold of 2, treated/untreated; for deregulated genes specific to the treatment: pathway analysis, Ingenuity. The method, then: Gene expression profiling of cell lines (from 2 μg RNA) was assessed using whole-genome Affymetrix U133 Plus 2.0 human oligonucleotide microarrays. Generation of expression matrices, data annotation, filtering and processing have been previously described [Giroux V et al., 2006 Clin Cancer Res 12: 235-241]. Microarray statistics and cluster analysis were performed by the Robust Multichip Average method in R using Bioconductor and using the Cluster and TreeView programs. Drug response signatures were generated by differential analysis, which compared the expression profile of each treated cell line with that of the untreated cell line by measuring the fold-change (treated/untreated) of each probe set. The lists of differential genes were interrogated using the Ingenuity Pathway Analysis software (Version 5.5.1-1002; Ingenuity Systems, Redwood City, Calif.) with a significance threshold for the corrected p-value<0.05. MIAME compliant array data can be accessed at (www.ebi.ac.uk/arrayexpress) using the accession number GSE17987.
Whole-genome clustering of the four cell samples sorted them into two opposite clusters (data not shown). The two treatment conditions with gemcitabine clustered together (left cluster), whereas cells treated with masitinib alone clustered with the untreated cells (right cluster). […] This was confirmed by the differential analysis of expression profile. […] These drug response expression signatures were characterised via pathway analysis using Ingenuity software. […] This pathway is involved in pancreatic development and re-activation of this signalling system has been implicated in pancreatic carcinoma with reported nuclear localisation of the downstream effector β-catenin. […] Three other pathways altered to a lesser extent included: ERK/MAPK Signalling, CDK5 Signalling, and PI3K/AKT Signalling (p=0.016, 0.025, 0.039, respectively).

Series [9] in a line: Masitinib clearance half-life. Conditions: human, in vivo. From the text: At the cut-off date for safety (17 Oct. 2008), all 22 patients enrolled had experienced at least one dose of masitinib. […] One patient reported a masitinib-related grade 4 neutropenia. The most common masitinib-related, haematological grade 3 AEs were anaemia (22.7%), lymphopenia (22.7%), neutropenia (18.2%) and leucopoenia (18.2%). The most common, masitinib-related, non-haematological grade 3 AE was asthenia (13.6% of patients). […] One patient's death was reported to be due to several AEs (two syncopes, severe abdominal pain, hypotension, grade 2 anemia, acute renal failure and respiratory distress syndrome) and was suspected to be related to masitinib at the time of occurrence. However, masitinib had been interrupted for 6 days before these fatal AEs occurred. […] Thus, the death of this patient is most unlikely related to masitinib. Four other deaths occurred during this study but none were suspected to be treatment related.

Series [10] has as its system pancreatic cancer. Particulars: cited from earlier work.
The mark [11] stands for this setting: Mia Paca-2, single agent, 72 hours, 1% FCS, read-out: IC50.
The mark [12] stands for this setting: Panc-1, single agent, 72 hours, 1% FCS, read-out: IC50.

Structures are written as SMILES. Where two headings read alike, the source gives them in different places. Marks after values point to notes of the source that are not given here.

FAK, sequence (Q05397 whole entry): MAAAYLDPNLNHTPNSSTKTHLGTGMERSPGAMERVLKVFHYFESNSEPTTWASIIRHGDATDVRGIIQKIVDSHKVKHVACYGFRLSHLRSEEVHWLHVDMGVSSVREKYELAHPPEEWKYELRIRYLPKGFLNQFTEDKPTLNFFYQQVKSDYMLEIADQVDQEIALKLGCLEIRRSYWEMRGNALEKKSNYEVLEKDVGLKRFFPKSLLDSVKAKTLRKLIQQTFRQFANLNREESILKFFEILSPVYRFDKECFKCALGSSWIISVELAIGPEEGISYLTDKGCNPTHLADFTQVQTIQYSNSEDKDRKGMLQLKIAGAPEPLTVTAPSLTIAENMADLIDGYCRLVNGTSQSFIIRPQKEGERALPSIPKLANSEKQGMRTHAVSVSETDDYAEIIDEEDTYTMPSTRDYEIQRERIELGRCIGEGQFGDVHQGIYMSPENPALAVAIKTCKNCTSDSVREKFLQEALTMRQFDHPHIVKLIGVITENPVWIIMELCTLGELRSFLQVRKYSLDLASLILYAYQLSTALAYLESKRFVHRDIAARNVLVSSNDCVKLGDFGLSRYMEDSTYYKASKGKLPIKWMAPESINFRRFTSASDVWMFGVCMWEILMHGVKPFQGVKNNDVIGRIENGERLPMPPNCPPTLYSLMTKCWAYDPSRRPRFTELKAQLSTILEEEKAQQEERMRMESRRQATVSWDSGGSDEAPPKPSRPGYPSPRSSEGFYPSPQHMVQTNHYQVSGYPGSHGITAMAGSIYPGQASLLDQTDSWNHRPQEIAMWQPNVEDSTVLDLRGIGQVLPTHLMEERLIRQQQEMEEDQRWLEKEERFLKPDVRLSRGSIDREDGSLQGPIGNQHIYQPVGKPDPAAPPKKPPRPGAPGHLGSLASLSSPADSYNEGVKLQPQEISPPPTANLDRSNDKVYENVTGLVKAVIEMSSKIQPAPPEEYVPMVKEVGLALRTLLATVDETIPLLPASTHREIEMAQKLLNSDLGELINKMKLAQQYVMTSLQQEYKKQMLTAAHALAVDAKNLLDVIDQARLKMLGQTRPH

Consider `Cc1ccc(NC(=O)c2ccc(CN3CCN(C)CC3)cc2)cc1Nc1nccc(-c2cccnc2)n1` [imatinib], for which the “response of Mia Paca-2 cells to gemcitabine after pre-incubation with TKI” value in series [1] was “did not result in an increased response”. Further, the “Mia Paca-2 cell proliferation, TKI alone” value in [1] (imatinib alone 10 μM) is listed as “not inhibited”.
For orientation: IC50 means the midpoint of a concentration-inhibition curve. The term half-life denotes the time needed for the level to fall by half in the phase considered. Higher therefore signals slow loss. `Cc1ccc(NC(=O)c2ccc(CN3CCN(C)CC3)cc2)cc1Nc1nc(-c2cccnc2)cs1` [Masitinib, 4-(4-methylpiperazin-1-ylmethyl)-N-[4-methyl-3-(4-pyridin-3ylthiazol-2-ylamino)phenyl]benzamide]: the FAK auto-activation result in [2] is “partially inhibits FAK auto-activation”. Moreover, in series [2] (masitinib 1 μM), the “reduces FAK activity” value turned out to be 21%. In addition, in [3], the “protein tyrosine phosphorylation (western blot)” value was “clearly inhibited tyrosine phosphorylation”. The IC50 was in the range of 5 to 10 µM in series [4] (Homo sapiens, BXPC-3, 72 h); 5 to 10 µM in series [5] (Homo sapiens, Capan-2, 72 h); 5 to 10 µM in series [1] (setting [11]); 5 to 10 µM in [6] (setting [12]). Also, the “response of Mia Paca-2 cells to gemcitabine after pre-incubation with TKI” value in series [1] is on record as “able to restore sensitivity to gemcitabine”. In [7], the “Tumour volume, Median” value is listed as 865 mm^3. The down-regulated genes in series [8] turned out to be 29 genes. For the same compound, the up-regulated genes in series [8] is reported as 325 genes. Besides, the deregulated genes in [8] is recorded as 354 genes. In addition, the “deregulated genes specific to the treatment” value in series [8] came to 201 genes. The same compound showed a half-life in series [9] of 17 h.
With `Cc1nc(Nc2ncc(C(=O)Nc3c(C)cccc3Cl)s2)cc(N2CCN(CCO)CC2)n1` [dasatinib], the cells remaining resistant in series [1] (Mia Paca-2, dasatinib alone >0.1 μM) is recorded as < 50%.
Turning to `Nc1ccn(C2OC(CO)C(O)C2(F)F)c(=O)n1` (centres unmarked) [Gemcitabine, 4-amino-1-[3,3-difluoro-4-hydroxy-5-(hydroxymethyl)tetrahydrofuran-2-yl]-1H-pyrimidin-2-one], the half-maximal inhibitory concentration (IC50) in [4] (72 hours) was 2 to 20 µM; in series [5] (72 hours), 2 µM; in series [5] (Homo sapiens, Capan-2, 72 h), 2 to 20 µM; in series [1] (Mia Paca-2, gemcitabine monotherapy, read-out: IC50 (resistance)), > 2500 µM; in [1] (setting [11]), > 10 µM; in series [6] (Panc-1, gemcitabine monotherapy, read-out: IC50 (resistance)) it was > 2500 µM. Further, the IC50 in [6] (setting [12]) was > 10 µM. Also, the “tumour growth between day 35 and 49” value in series [7] (FIG. 3) is on record as “stabilization of tumour growth”. In addition, the “Tumour volume, Median” value in series [7] is on record as 662* mm^3. In series [8], the down-regulated genes stood at 113 genes. For the same compound, the up-regulated genes in [8] is on record as 1048 genes. In series [8], the deregulated genes amounted to 1161 genes. Besides, the “deregulated genes specific to the treatment” value in series [8] was 818 genes. In series [10] (Burris et al. 1997, advanced pancreatic population (locally advanced and metastatic)), the “medium TTP” value is on record as 2.33 months. Besides, the TTP threshold in series [10] (Storniolo et al. 1999, solely locally advanced patients) is listed as 4.1 months. The 1-year survival rate in series [10] (clinical trial of erlotinib plus gemcitabine versus gemcitabine monotherapy, p=0.023) is 17%; in series [10] (standard gemcitabine therapy), 21%. Also, the “median OS” value in series [10] (clinical trial of erlotinib plus gemcitabine versus gemcitabine monotherapy) was 5.91 months. The “12-month survival rates, published” value in series [10] (comparison) is recorded as 21%. For the same compound, the “median OS, published” value in series [10] (comparison) is on record as 6 months. Besides, in series [10] (standard gemcitabine therapy, locally advanced, unresectable, or metastatic pancreatic adenocarcinoma), the “median overall survival (OS)” value is 6 months.

The record behind these values is patent publication US20120309706A1, “COMBINED TREATMENT OF PANCREATIC CANCER WITH GEMCITABINE AND MASITINIB” (AB SCIENCE, priority 2010, published 2012).
